System: E. coli DH5α
Assay: Induced growth curves of E. coli expressing peptide-PhoA fusions in the periplasm (periplasmic in vivo display)
Assay type: cell-based
Details: peptide expressed as PhoA fusion in the periplasm, arabinose induction, OD600
Experimental: Numerous periplasmic screens have been performed for the identification of bacteriolytic peptides, encompassing more than 90 million clones. Selected clones have been sequenced and confirmed by induced growth curves, confirming that the disclosed bacteriolytic screen enriches plasmid preparations for peptides that elicit cell lysis. For example, an isolated clone is grown in fresh LB medium to early log phase. Arabinose is added to induced peptide-PhoA fusion expression, and the peptide's effect on growth is observed by measuring the cell density of the culture. Many clones of differing growth phenotypes were analyzed. Bacteriolytic peptides have predominated the extracted clones, which is to be expected given that the bacteriolytic screen was used. Peptides were recovered that had either a bacteriostatic or bactericidal effect and others that have a weakly inhibitory effect as they reduce the rate of E. coli's growth […] and may find use as precursors to actual peptide hits.
Phenotype definitions: Bacteriolytic: OD600 of culture decreases in value, correlating with a reduction in the concentration of cells. Bactriostatic/bactericidal: OD600 of culture flatlines, correlating with a complete stop in the growth of the cells and constant cell density. Weakly inhibitory OD600<0.7: Replication is slowed but not stopped. Final OD600 as culture enters stationary phase is less than 0.7. Weakly inhibitory OD600>0.7: Similar to the above, only final OD600 exceeds 0.7. Peptides have only a minor effect on growth. Non-inhibitory: No growth effect was observed versus the expression of PhoA with no peptide at its N-terminus.
After replica plating, clones were grown in LB+30 μg/ml kanamycin. When OD600˜0.15, arabinose was added to a final concentration of 0.2%. The OD600 of the culture was then measured every 30 minutes to see the effect of peptide-PhoA fusion expression on the cell. […]

Substance	antimicrobial activity / growth phenotype after induction
EOD084: non-inhibitory, proline-containing peptide from the early onset degenerate peptide library (FMRLPRWWRRMQ; Antimicrobial peptide EOD084)	non-inhibitory
EOD037: inhibitory peptide from the early onset degenerate peptide library (IRWLARRWRRTF; Antimicrobial peptide EOD037)	inhibitory
EOD037 Pro+: EOD037 in which an alanine was replaced with a proline (IRWLPRRWRRTF; Antimicrobial peptide EOD037Pro+)	loss of antimicrobial activity
